Measurements: US10722480B2, “Agent for controlling cells constituting cancer microenvironment or inflammatory microenvironment” (The University of Tokyo, priority 2015, dated 2020)

Assays:
[1] = biological target: T1, Full-length FROUNT protein (Homo sapiens, UniProt Q9BW27); experiment: Surface plasmon resonance binding to FROUNT; details: SPR
T1 construct: made in house
T1 sequence (Q9BW27 1-656): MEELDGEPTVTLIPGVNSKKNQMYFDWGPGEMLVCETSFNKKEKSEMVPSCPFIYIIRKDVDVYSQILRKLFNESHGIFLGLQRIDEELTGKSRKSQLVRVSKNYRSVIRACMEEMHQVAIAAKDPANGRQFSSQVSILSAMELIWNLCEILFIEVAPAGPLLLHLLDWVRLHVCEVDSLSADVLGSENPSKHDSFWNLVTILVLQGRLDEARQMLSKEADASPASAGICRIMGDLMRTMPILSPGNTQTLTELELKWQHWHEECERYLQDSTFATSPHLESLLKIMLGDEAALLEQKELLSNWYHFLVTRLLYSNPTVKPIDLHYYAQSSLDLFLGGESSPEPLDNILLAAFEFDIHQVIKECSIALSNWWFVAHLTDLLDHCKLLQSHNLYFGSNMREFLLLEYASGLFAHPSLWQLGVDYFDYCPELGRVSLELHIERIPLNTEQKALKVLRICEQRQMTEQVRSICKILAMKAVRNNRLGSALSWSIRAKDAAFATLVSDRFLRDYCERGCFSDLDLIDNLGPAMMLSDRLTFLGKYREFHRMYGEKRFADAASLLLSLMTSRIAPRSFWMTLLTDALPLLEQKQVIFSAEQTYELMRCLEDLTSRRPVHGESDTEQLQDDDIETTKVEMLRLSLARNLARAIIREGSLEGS
Description: Interactions between FROUNT and compounds in the library were analyzed by surface plasmon resonance (SPR) using Biacore […] (GE Healthcare). Full-length FROUNT protein (SEQ ID NO:2) (Esaki, K. et al. Protein Expr Purif 77, 86-91, (2011)) was immobilized on a CM5 sensor chip. Solutions of disulfiram prepared by serial dilution in HBS-EP buffer containing 2% DMSO (GE Healthcare) were applied to the sensor chip at a flow rate of 30 μL/min. The resonance unit (RU) was measured during the process from the binding to the washing to analyze the binding dynamics. Biacore T100 evaluation software was used to carry out solvent correction for DMSO.

[2] = biological target: T2, aldehyde dehydrogenase (ALDH) (Rattus norvegicus, UniProt P11884); details: Excerpt from Alcohol Clin Exp Res 1996.20.595-; read-out: ALDH inhibition; cited from earlier work
T2 sequence (P11884 20-519): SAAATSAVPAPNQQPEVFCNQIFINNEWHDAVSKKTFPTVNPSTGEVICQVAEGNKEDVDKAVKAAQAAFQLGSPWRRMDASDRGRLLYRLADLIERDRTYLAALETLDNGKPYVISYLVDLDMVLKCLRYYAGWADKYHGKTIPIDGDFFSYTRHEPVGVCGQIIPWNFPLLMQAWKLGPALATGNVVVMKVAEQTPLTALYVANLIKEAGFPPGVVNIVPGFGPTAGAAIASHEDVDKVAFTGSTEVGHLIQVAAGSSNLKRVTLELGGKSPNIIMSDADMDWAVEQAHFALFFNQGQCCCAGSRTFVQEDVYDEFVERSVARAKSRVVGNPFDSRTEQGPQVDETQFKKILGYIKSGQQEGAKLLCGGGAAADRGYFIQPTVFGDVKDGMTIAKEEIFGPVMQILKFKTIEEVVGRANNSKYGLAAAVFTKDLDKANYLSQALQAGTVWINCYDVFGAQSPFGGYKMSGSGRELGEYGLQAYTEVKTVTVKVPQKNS

binding to FROUNT protein [1]: directly bound
SMILES: CCN(CC)C(=S)SSC(=S)N(CC)CC [DSF, disulfiram]
IC50 [2]: 7.4 µM
